Laboratory results: ChEMBL document CHEMBL1201862, “PubChem BioAssay data set” (2004)
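Values below derive from 48-hour exposures of cells grown in 96-well plates, with endpoints linearly interpolated between the two concentrations bracketing the appropriate inhibition level. GI50: concentration for 50% inhibition of growth.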 The source made the active and inactive calls. Cut-off read from the data, not from the text of the source: active = GI50 up to about 1.1 µM and inactive = higher.

Legend:
Assay in all cases: inhibition of tumour cell growth, NCI panel, 48 h
A498 = system: A498
A549 = system: A549
CCRF-CEM = system: CCRF-CEM
HCC 2998 = system: HCC 2998
HCT-116 = system: HCT-116
HOP-92 = system: HOP-92
IGROV-1 = system: IGROV-1
KM12 = system: KM12
NCI-H226 = system: NCI-H226
NCI-H23 = system: NCI-H23
OVCAR-4 = system: OVCAR-4
SF-295 = system: SF-295
SK-MEL-2 = system: SK-MEL-2
SK-OV-3 = system: SK-OV-3
SNB-75 = system: SNB-75
TK-10 = system: TK-10
UACC-257 = system: UACC-257
UO-31 = system: UO-31
Malme-3M = system: Malme-3M

Measured: GI50

N/N=C(\C(=O)Nc1c(Cl)cc([N+](=O)[O-])cc1Cl)C(c1cnc2ccc([N+](=O)[O-])cc2n1)[N+](=O)[O-] (centres undefined)
inactive: A498 > 100 µM | A549 > 100 µM | CCRF-CEM 77.1 µM | HCC 2998 82.2 µM | HCT-116 > 100 µM | HOP-92 > 100 µM | IGROV-1 > 100 µM | KM12 50.1 µM | NCI-H226 6.71 µM | NCI-H23 > 100 µM | OVCAR-4 > 100 µM | SF-295 > 100 µM | SK-MEL-2 > 100 µM | SK-OV-3 > 100 µM | SNB-75 56.9 µM | TK-10 > 100 µM | UACC-257 > 100 µM | UO-31 87.7 µM

C[n+]1[se]c2ccccc2c1Cl
inactive: A498 > 59.4 µM | A549 32 µM | CCRF-CEM 8.67 µM | HCC 2998 > 47.8 µM | HCT-116 16.9 µM | HOP-92 7.31 µM | IGROV-1 31 µM | KM12 > 40.2 µM | Malme-3M 23.3 µM | NCI-H226 25.6 µM | NCI-H23 20.1 µM | OVCAR-4 31 µM | SF-295 21.7 µM | SK-MEL-2 11.7 µM | SK-OV-3 > 89.3 µM | SNB-75 17.6 µM | TK-10 > 43.4 µM | UACC-257 17.9 µM | UO-31 24.8 µM

COc1ccc(/C(Cl)=C(\C=O)c2ccc(F)cc2)cc1
inactive: A498 17.4 µM | CCRF-CEM 3.14 µM | HCT-116 5.08 µM | HOP-92 4.29 µM | IGROV-1 18.9 µM | Malme-3M 13.7 µM | NCI-H226 11.7 µM | NCI-H23 14.8 µM | SF-295 8.43 µM | SK-MEL-2 8.83 µM | SK-OV-3 40 µM | SNB-75 2.27 µM | TK-10 33.1 µM | UO-31 8.15 µM

C[Si](C)(C)/C(I)=C/CO
inactive: A498 38.6 µM | A549 24.1 µM | CCRF-CEM 22 µM | HCT-116 14.3 µM | HOP-92 24 µM | IGROV-1 25.1 µM | KM12 23 µM | Malme-3M 27.1 µM | NCI-H226 20.4 µM | NCI-H23 18 µM | OVCAR-4 38.3 µM | SF-295 24.9 µM | SK-MEL-2 19.7 µM | SK-OV-3 32.5 µM | SNB-75 53.6 µM | TK-10 33.3 µM | UACC-257 15.5 µM | UO-31 34.4 µM

COC(=O)C(/C(=N/NC(N)=S)C(=O)Nc1ccccc1[N+](=O)[O-])c1cnc2ccccc2n1 (centres undefined)
inactive: A498 > 100 µM | A549 > 100 µM | CCRF-CEM > 100 µM | HCC 2998 > 100 µM | HCT-116 > 100 µM | HOP-92 > 100 µM | IGROV-1 > 100 µM | KM12 > 100 µM | Malme-3M > 100 µM | NCI-H226 > 100 µM | NCI-H23 > 100 µM | OVCAR-4 > 100 µM | SF-295 > 100 µM | SK-MEL-2 > 100 µM | SK-OV-3 > 100 µM | SNB-75 > 100 µM | TK-10 > 100 µM | UACC-257 > 100 µM | UO-31 > 100 µM

CCOC(=O)C(=O)NC12CC3CC(CC(C3)C1)C2
inactive: A498 > 100 µM | A549 > 100 µM | CCRF-CEM > 100 µM | HCC 2998 > 100 µM | HCT-116 > 100 µM | HOP-92 > 100 µM | IGROV-1 > 100 µM | KM12 > 100 µM | Malme-3M > 100 µM | NCI-H226 > 100 µM | NCI-H23 > 100 µM | OVCAR-4 > 100 µM | SF-295 > 100 µM | SK-MEL-2 > 100 µM | SK-OV-3 > 100 µM | SNB-75 > 100 µM | TK-10 > 100 µM | UACC-257 > 100 µM | UO-31 > 100 µM

O=C(CC/C=C(/CS(=O)(=O)c1ccccc1)S(=O)(=O)c1ccccc1)c1ccccc1
inactive: A498 > 100 µM | A549 > 100 µM | CCRF-CEM 12.1 µM | HCC 2998 > 100 µM | HCT-116 > 100 µM | HOP-92 > 100 µM | IGROV-1 > 100 µM | KM12 > 100 µM | Malme-3M > 10 µM | NCI-H226 > 100 µM | NCI-H23 > 100 µM | OVCAR-4 > 100 µM | SF-295 > 100 µM | SK-MEL-2 50.8 µM | SK-OV-3 44 µM | SNB-75 25.6 µM | TK-10 > 100 µM | UACC-257 > 100 µM | UO-31 > 100 µM

O=C(OCc1ccccc1)OOC(=O)OCc1ccccc1
inactive: A498 > 100 µM | A549 > 100 µM | CCRF-CEM > 100 µM | HCC 2998 > 100 µM | HCT-116 > 100 µM | HOP-92 > 100 µM | IGROV-1 > 100 µM | KM12 > 100 µM | Malme-3M > 100 µM | NCI-H23 > 100 µM | OVCAR-4 > 100 µM | SF-295 > 100 µM | SK-MEL-2 > 100 µM | SK-OV-3 > 100 µM | SNB-75 99.1 µM | UACC-257 > 100 µM | UO-31 > 100 µM

COc1c2c(cc3c(CCc4ccccc4)cc(=O)oc13)CCC(C)(C)O2
inactive: CCRF-CEM > 100 µM | HCC 2998 > 100 µM | HCT-116 > 100 µM | HOP-92 2.34 µM | IGROV-1 > 100 µM | KM12 > 100 µM | Malme-3M > 100 µM | NCI-H226 > 100 µM | NCI-H23 > 100 µM | SF-295 > 100 µM | SK-MEL-2 > 100 µM | SK-OV-3 > 100 µM | SNB-75 > 100 µM | TK-10 > 100 µM | UACC-257 > 100 µM | UO-31 > 100 µM

COC(=O)C(Cc1ccc(N(C)C)cc1)(NC(=O)c1ccccc1)P(=O)(OC)OC (centres undefined)
inactive: A498 > 100 µM | A549 > 100 µM | CCRF-CEM > 100 µM | HCC 2998 > 100 µM | HCT-116 > 100 µM | HOP-92 > 100 µM | IGROV-1 > 100 µM | KM12 > 100 µM | NCI-H226 > 100 µM | NCI-H23 > 100 µM | OVCAR-4 > 100 µM | SF-295 > 100 µM | SK-MEL-2 > 100 µM | SK-OV-3 > 100 µM | SNB-75 > 100 µM | TK-10 > 100 µM | UACC-257 > 100 µM | UO-31 > 100 µM

O=S1(=O)CC#CC[C@@H](CO)[C@@H](CO)CC#CC1
inactive: A549 > 100 µM | CCRF-CEM 22.5 µM | HCC 2998 > 100 µM | HCT-116 61.2 µM | HOP-92 31.5 µM | IGROV-1 43.1 µM | KM12 > 100 µM | Malme-3M 21.7 µM | NCI-H23 > 100 µM | OVCAR-4 > 100 µM | SF-295 > 100 µM | SK-MEL-2 > 100 µM | SK-OV-3 > 100 µM | SNB-75 82 µM | TK-10 > 100 µM | UACC-257 91.6 µM | UO-31 > 100 µM
